In US20160319277A1, “METHODS OF IMPROVED PROTEIN PRODUCTION USING MIRNAs AND SIRNAs” (THE JOHNS HOPKINS UNIVERSITY, priority 2015, published 2016):
Read-outs that look alike come from different tables or passages of the source.

System: HEK-CMV-Luc2-Hygro cells
Assay: High-throughput genome-wide siRNA screen and validation screen for luciferase expression
Assay type: cell-based, human
Conditions: for per_cell / VIA: Table 3; for per_cell: per cell luciferase yield relative to negative control; for VIA: viable cell density as % of negative control; for Luciferase activity (%) / Per cell luciferase yield (%) / Viable cell number (%): Table 6, polyamine pathway gene siRNAs
Description: The Silencer Select™ Human genome siRNA library (Ambion), which targets 21,585 human genes with 3 siRNAs per gene, was used for screening. Each siRNA is arrayed in an individual well (Corning 3570, 384 well, white, solid bottom plates). The transfection was done in duplicates: 0.8 pmol of each siRNA was spotted to a well of a 384-well plate (Corning) and 20 μL of serum-free DMEM containing 0.07 μL of Lipofectamine™ RNAiMax (Life Technologies) was then added to each well. This lipid-siRNA mixture was incubated at ambient temperature for 30 min prior to addition of 4000 cells in 20 μL of DMEM containing 20% FBS (Gibco). After incubating the transfected cells at 37° C. in 5% CO2 for 72 hours, 20 μL of ONE-Glo™ Reagent (Promega) was added to one set of replicates for ‘overall luciferase yield’ quantification and 20 μL of CellTiter-Glo™ Reagent (Promega) was added to the second set of replicates for ‘viable cell density’ measurement. All plates were incubated at room temperature for 20 minutes to stabilize the luminescent signal and the signal was then measured with PerkinElmer Envision 2104 Multilabel™ plate reader.
The 56 genes which got targeted by at least two independent siRNAs (out of three) resulting in enhanced luciferase production with MAD-based z-score>3 from the primary screen were subjected to validation screen using 3 additional Silencer™ siRNAs (Ambion) with different sequences from those used in the primary screen. […] The transfection and assay processes were-the same as the primary genome-wide screen. Data visualization was performed in R computational environment (available on the World Wide Web at R-project.org/) by using ‘hexbin’ and ‘ggplot2’ packages.
The screen generated end-point data for ‘overall luciferase yield’ and ‘viable cell density’ in each well. For each plate, the median value of the negative control wells was set as 100% and was used to normalize corresponding sample wells. The ‘overall luciferase yield’ and ‘viable cell density’ were exported as % of negative control and the median absolute deviation (MAD)-based z-score was calculated for each sample.

[1] = Table 4, primary screen, 72 h, negative control = 100%

| Substance | Viable cell density (%) [1] [%] | per cell luciferase yield (%) [1] [%] | per_cell (primary screen, 72 h) | VIA (primary screen, 72 h) | further results |
| --- | --- | --- | --- | --- | --- |
| 159 (GGAGUUCUUUGAUGAGAAATT; chemistry not given here; listed as Homo sapiens) [compound 159] | 96.357 | 157.243 |  |  |  |
| 75 (GCUCAUCGACAUCAAAGUUTT; chemistry not given here; listed as Homo sapiens) [compound 75] |  |  | 170.1 | 97.01 |  |
| 195 (UGAAGAUAAUCGAGAAAUATT; chemistry not given here; listed as Homo sapiens) [compound 195] | 67.947 | 258.104 |  |  |  |
| 207 (CGCUCACCAACAGCAGAAATT; chemistry not given here; listed as Homo sapiens) [compound 207] | 102.629 | 146.756 |  |  |  |
| 60 (GGCGAAUGCUCCUGACUAATT; chemistry not given here; listed as Homo sapiens) [compound 60] |  |  | 157 | 103.9 |  |
| 66 (GCAACAGAAUCGAGCAAGATT; chemistry not given here; listed as Homo sapiens) [compound 66] |  |  | 154.3 | 105.6 |  |
| 228 (GCCCUCUGUUGGAUAUCUATT; chemistry not given here; listed as Homo sapiens) [compound 228] |  |  |  |  | Luciferase activity (%): 45.6%; Per cell luciferase yield (%): 63.2%; Viable cell number (%): 72.1% |
| 205 (CUCUGAUUGUCACCUCUUATT; chemistry not given here; listed as Homo sapiens) [compound 205] | 61.943 | 281.113 |  |  |  |
| 157 (GAACAGCUGGGAACCUUCATT; chemistry not given here; listed as Homo sapiens) [compound 157] | 60.645 | 254.007 |  |  |  |
| 222 (GACUUUCACUUCCGCCUUATT; chemistry not given here; listed as Homo sapiens) [compound 222] |  |  |  |  | Luciferase activity (%): 74.3%; Per cell luciferase yield (%): 84.7%; Viable cell number (%): 87.7% |
| 103 (GACAUUGGAUCAUACUAAATT; chemistry not given here; listed as Homo sapiens) [compound 103] | 88.908 | 185.522 |  |  |  |
| 143 (GCAAAGAUAGCGAGAAAUATT; chemistry not given here; listed as Homo sapiens) [compound 143] | 75.599 | 193.846 |  |  |  |
| 49 (CGAAACUUGUCAACGGGAATT; chemistry not given here; listed as Homo sapiens) [compound 49] |  |  | 179.2 | 104.6 |  |
| 200 (GCAACAGAAUCGAGCAAGATT; chemistry not given here; listed as Homo sapiens) [compound 200] | 105.583 | 154.286 |  |  |  |
| 168 (GCUUCCUCUUGGACCUCAATT; chemistry not given here; listed as Homo sapiens) [compound 168] | 78.156 | 185.175 |  |  |  |
| 114 (GUCCUAUCACCGUAUCUUATT; chemistry not given here; listed as Homo sapiens) [compound 114] | 55.962 | 266.627 |  |  |  |
| 183 (CAACAGAUCAGAGAACAAATT; chemistry not given here; listed as Homo sapiens) [compound 183] | 92.429 | 156.418 |  |  |  |
| 51 (CCAGCGAUACAACUCCUAUTT; chemistry not given here; listed as Homo sapiens) [compound 51] |  |  | 176.8 | 83.64 |  |
| 84 (GGCUGUACAUAGUCCUUUUTT; chemistry not given here; listed as Homo sapiens) [compound 84] |  |  | 238.5 | 66.39 |  |
| 111 (CAACCUUAUUAUCAUUGAATT; chemistry not given here; listed as Homo sapiens) [compound 111] | 49.133 | 300.611 |  |  |  |

| Substance | Viable cell density (%) [1] [%] | per cell luciferase yield (%) [1] [%] | per_cell (primary screen, 72 h) | VIA (primary screen, 72 h) | further results |
| --- | --- | --- | --- | --- | --- |
| 169 (GCGGAAAAGGUAUCCCUCATT; chemistry not given here; listed as Homo sapiens) [compound 169] | 80.173 | 184.608 |  |  |  |
| 65 (GCCUAGGAGUUAUCCUCUATT; chemistry not given here; listed as Homo sapiens) [compound 65] |  |  | 137.6 | 112.2 |  |
| 154 (CAACAGUACUUACCGAUGUTT; chemistry not given here; listed as Homo sapiens) [compound 154] | 115.513 | 141.760 |  |  |  |
| 144 (GGAUCACGCAGCUCAAGAUTT; chemistry not given here; listed as Homo sapiens) [compound 144] | 91.538 | 161.634 |  |  |  |
| 120 (GGAUCAUGCUAAAAGGAGATT; chemistry not given here; listed as Homo sapiens) [compound 120] | 54.945 | 311.516 |  |  |  |
| 39 (CGCUUUAACUGGAAGCUCUTT; chemistry not given here; listed as Homo sapiens) [compound 39] |  |  | 147 | 103.7 |  |
| 161 (GCAGUGGACAUAGAAGAGATT; chemistry not given here; listed as Homo sapiens) [compound 161] | 110.815 | 140.658 |  |  |  |
| 81 (GUUUCAUCUGGGUUCGCUATT; chemistry not given here; listed as Homo sapiens) [compound 81] |  |  | 233.6 | 62.66 |  |
| 201 (CCCUGAAGGUUACCUCUUUTT; chemistry not given here; listed as Homo sapiens) [compound 201] | 63.690 | 273.535 |  |  |  |
| 197 (GACUCAGAGUAACAACGCATT; chemistry not given here; listed as Homo sapiens) [compound 197] | 95.471 | 162.372 |  |  |  |
| 52 (GGAAGAACGUCUUGCACAATT; chemistry not given here; listed as Homo sapiens) [compound 52] |  |  | 183.1 | 85.47 |  |
| 86 (CAUUGGUUUUGAUGAGUAUTT; chemistry not given here; listed as Homo sapiens) [compound 86] |  |  | 226.7 | 64.38 |  |
| 125 (GGAACACUAUGAUGAGUUUTT; chemistry not given here; listed as Homo sapiens) [compound 125] | 63.672 | 240.287 |  |  |  |
| 122 (AGGGCUAUCUGGUAUCUGUTT; chemistry not given here; listed as Homo sapiens) [compound 122] |  | 283.281 |  |  | Viable cell density (%): 54.854% |
| 74 (CUUCGACAGUACUUCCGGATT; chemistry not given here; listed as Homo sapiens) [compound 74] |  |  | 161.6 | 104 |  |
| 106 (GCUCAUCGACAUCAAAGUUTT; chemistry not given here; listed as Homo sapiens) [compound 106] | 97.007 | 170.088 |  |  |  |
| 99 (CCCGGAUACUUCUGAAGAATT; chemistry not given here; listed as Homo sapiens) [compound 99] | 75.879 | 227.884 |  |  |  |
| 223 (GAUGACUUUUGAUAGUGAATT; chemistry not given here; listed as Homo sapiens) [compound 223] |  |  |  |  | Luciferase activity (%): 18.0%; Per cell luciferase yield (%): 32.1%; Viable cell number (%): 56.1% |
| 155 (GCCUUGCUCCGAACCUUCATT; chemistry not given here; listed as Homo sapiens) [compound 155] | 94.839 | 169.972 |  |  | Luciferase activity (%): 161.1%; Per cell luciferase yield (%): 169.9%; Viable cell number (%): 94.8% |
| 71 (GAUUACUUCUUGACUAUCATT; chemistry not given here; listed as Homo sapiens) [compound 71] |  |  | 150.8 | 123.2 |  |
